Assays:
[1] = target: T1, calpain-2 (Homo sapiens, UniProt P17655); assay: IC50 on calpain-1 and calpain-2 activities (Wang et al., 2014), selectivity; format: biochemical
T1 sequence (P17655 1-700): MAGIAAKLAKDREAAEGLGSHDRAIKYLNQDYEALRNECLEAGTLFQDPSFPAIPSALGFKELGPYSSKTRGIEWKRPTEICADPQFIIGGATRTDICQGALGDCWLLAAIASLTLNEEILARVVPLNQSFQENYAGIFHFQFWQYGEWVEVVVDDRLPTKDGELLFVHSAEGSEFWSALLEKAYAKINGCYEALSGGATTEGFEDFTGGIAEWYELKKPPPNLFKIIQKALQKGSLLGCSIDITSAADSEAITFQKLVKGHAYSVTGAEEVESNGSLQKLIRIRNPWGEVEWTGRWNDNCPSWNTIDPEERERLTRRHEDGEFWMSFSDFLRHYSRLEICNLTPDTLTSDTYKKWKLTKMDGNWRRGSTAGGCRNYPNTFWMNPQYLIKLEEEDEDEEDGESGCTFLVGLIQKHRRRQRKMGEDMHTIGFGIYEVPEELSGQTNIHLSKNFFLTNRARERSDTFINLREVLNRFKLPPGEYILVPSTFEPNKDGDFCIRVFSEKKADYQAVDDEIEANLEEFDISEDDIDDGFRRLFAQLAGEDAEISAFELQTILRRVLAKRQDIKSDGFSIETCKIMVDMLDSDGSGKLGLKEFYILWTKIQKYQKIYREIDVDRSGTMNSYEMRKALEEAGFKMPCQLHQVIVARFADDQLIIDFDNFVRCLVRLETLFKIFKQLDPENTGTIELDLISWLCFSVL
T1 sequence (P04632 1-268 partner): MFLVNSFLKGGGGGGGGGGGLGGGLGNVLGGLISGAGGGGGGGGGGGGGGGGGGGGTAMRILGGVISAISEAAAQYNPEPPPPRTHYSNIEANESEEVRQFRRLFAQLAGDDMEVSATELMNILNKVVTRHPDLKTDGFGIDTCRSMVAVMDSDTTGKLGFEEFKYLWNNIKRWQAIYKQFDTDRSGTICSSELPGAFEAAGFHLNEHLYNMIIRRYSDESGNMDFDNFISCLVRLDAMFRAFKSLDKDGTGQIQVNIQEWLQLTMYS
Description: These compounds can be calpain-2 selective inhibitors. […] IC50 values for NA115 on the activity of calpain-1 and calpain-2 activities were measured (Wang et al., 2014). […] The selectivity of NA117 was 24.1. [0016] Pharmaceutical compositions of the invention comprise NA115 and NA117, and a pharmaceutically acceptable excipient. Excipients used in pharmaceutical composition of the invention are safe and provide the appropriate delivery for the desired route of administration, of an effective amount of NA115 and NA117.

[2] = test system: calpain-2 activation in the retina; assay: acute glaucoma model (increased IOP), SBDP immunohistochemistry in retina; format: in vivo; conditions: mouse
Description: Immunohistochemistry for SBDP (green) in sections from a sham animal (surgery only), animal subjected to increased IOP and injected intraocularly with vehicle (10% DMSO in PBS, 1 μl; IOP)), increased IOP and injected with NA115 (40 μM, 100 μM, and 200 μM). Blue staining represents cell nuclear staining with the retinal ganglion cells on the upper layer.
For each image, mean fluorescence intensity (MFI) is analyzed in the inner plexiform layer (layer between the 2 cell body layers in FIG. 1). Three frozen sections (20 μm-thick), cut through the optic disc of each eye, were collected and stained with SBDP antibody. In each section, three images were captured under 60× objective of a confocal microscope (LSM-880). For each image, MFI (mean fluorescence intensities) in the IPL layer were measured in ImageJ and averaged. N=2 animals/group.
Same experimental procedure as in FIGS. 1-4. NA117 was injectedintraocularly at a concentration of 200 μM). One-way ANOVA followed by Bonferroni test. *p<0.05, **p<0.01. Results are means±SEM of 2 animals. Scale bar=20 microns.
(§1) The model of acute glaucoma previously reported in Wang et al. (2016) was used. In this model, intraocular pressure (IOP) was increased to 110 mm Hg for 1 h with the mouse under anesthesia. Two h later mice received an intraocular injection of various concentrations of a calpain-2 inhibitor and were returned to their home cages. […]

[3] = target: T1, calpain-2; assay: in vitro calpain assay with succinic-Leu-Tyr-AMC, calpain-2; format: biochemical; conditions: for IC50 / Ki: human calpain-2, succinic-Leu-Tyr-AMC
Description: (§2) NA115A (Compound 15 (S above) was introduced at various concentrations into an in vitro mix comprising succinic-Leu-Tyr-AMC and human calpain-1 or calpain-2 (Sasaki et al, 1984), and the kinetics of the […] of fluorescence were determined for each of the calpains. The Kis of NA115, NA115A and NA115B for calpain-1 and calpain-2 are shown in Tables 1-2 below. The efficacy of NA115 against calpain-1 or calpain-2 appears to be only in NA115A.

[4] = target: T2, human calpain-1 (Homo sapiens, UniProt P07384); assay: in vitro calpain assay with succinic-Leu-Tyr-AMC, calpain-1; format: biochemical; conditions: human calpain-1, succinic-Leu-Tyr-AMC
T2 sequence (P07384 1-714): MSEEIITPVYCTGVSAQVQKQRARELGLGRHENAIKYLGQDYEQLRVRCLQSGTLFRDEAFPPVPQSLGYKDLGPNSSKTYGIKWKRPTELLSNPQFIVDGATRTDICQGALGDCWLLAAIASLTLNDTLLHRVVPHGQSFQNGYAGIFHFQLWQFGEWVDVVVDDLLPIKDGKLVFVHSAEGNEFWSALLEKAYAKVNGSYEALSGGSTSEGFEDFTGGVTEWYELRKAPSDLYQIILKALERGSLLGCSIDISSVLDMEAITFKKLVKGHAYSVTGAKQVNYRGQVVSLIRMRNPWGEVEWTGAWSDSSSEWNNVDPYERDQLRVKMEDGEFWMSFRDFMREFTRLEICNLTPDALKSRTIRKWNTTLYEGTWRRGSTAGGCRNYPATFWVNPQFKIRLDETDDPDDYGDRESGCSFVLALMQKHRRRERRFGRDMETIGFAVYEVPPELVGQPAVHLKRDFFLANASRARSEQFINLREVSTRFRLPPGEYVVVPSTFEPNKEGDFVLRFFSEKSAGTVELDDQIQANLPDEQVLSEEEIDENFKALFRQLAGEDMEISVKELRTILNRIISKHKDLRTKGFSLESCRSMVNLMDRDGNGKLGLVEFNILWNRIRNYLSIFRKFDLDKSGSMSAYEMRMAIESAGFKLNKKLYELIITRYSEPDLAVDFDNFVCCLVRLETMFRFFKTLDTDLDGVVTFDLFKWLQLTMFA
T2 sequence (P04632 1-268 partner): T1 sequence (P04632 1-268 partner)
Description: as §2

[5] = epimerization in pig vitreous fluid, aliquots tested in the calpain-2 assay; format: in vitro ADME; conditions: 35° C.; for change of inhibitory effect in the calpain-2 assay after incubation: 2 μM, various periods of time
Description: NA115A or NA115B (2 μM) was incubated with pig vitreous fluid for various periods of time at 35° C. Aliquots were then tested in the calpain-2 assay. […] (FIGS. 9A-9D).

[6] = test system: retinal ganglion cells; assay: acute glaucoma model (increased IOP), beta-III tubulin staining of retinal wholemounts; format: in vivo; conditions: mouse, 200 μM, 1 μl intraocular 2 h after IOP elevation, 3 days after increased IOP
Description: Immunohistochemistry is shown with staining in the peripheral area of retinal wholemounts, with anti-beta-III tubulin, a marker for retinal ganglion cells, 3 days after increased IOP in a sham animal, an animal subjected to increased IOP and injected with vehicle (10% DMSO in PBS, 1 μl; IOP)) and an animal subjected to increased IOP and injected with NA115 (200 μM). Scale bar=100 microns.
Vehicle (10% DMSO in PBS, 1 μl) or NA115 (200 μM, 1 μl) was injected 2 h after IOP elevation. Retinal whole mounts were prepared 3 days after the surgery. One-way ANOVA followed by Bonferroni test. ****p<0.0001, **p<0.01. N=8 for Sham. N=7 for IOP, IOP+NA115.
as §1, with “cages. They were sacrificed 4 h later for determination of calpain activity using immunohistochemistry to stain for the spectrin breakdown product (SBDP) selectively generated by calpain-mediated truncation of spectrin. Previous studies (Wang et al., 2016) have shown that, at this time-point calpain activity represents calpain-2 activity.” for “cages.”

[7] = plasma stability in mouse plasma; format: in vitro ADME; conditions: mouse plasma; solubilized in 2-Hydroxypropyl)-beta-cyclodextrin or captisol, depending on the solvent
Description: Stability of NA115 was evaluated with NA115 solubilized in 2-Hydroxypropyl)-beta-cyclodextrin or in captisol.
Moreover, 1 mM of the NA115 in beta-cyclodextrin was diluted 5 times in freshly prepared mouse plasma (200 μM NA115 in plasma). The mixture was incubated at 37 degree. At indicated time point, 1 μl of the mixture was added to 99 ul of calpain assay solution containing 5 mM Ca2+, 200 μM Suc-Leu-Tyr-AMC substrate and 100 nM calpain-2. Hydrolysis rate was monitored in the plate reader. As a control, 1 μl of plasma alone was subjected to calpain assay and its hydrolysis rate was set as 100% of calpain activity.

SMILES | selectivity for calpain-2, ratio of IC50 calpain-1/IC50 calpain-2 [1] | inhibition of calpain activation (SBDP staining) following increased IOP ([2]; intraocular injection 200 μM) | Ratio KiCalpain-1/KiCalpain-2 [3] | IC50 [3] [nM] | Ki [3] [nM] | IC50 [4] [nM] | Ki [4] [nM] | change of inhibitory effect in the calpain-2 assay after incubation [5] | epimerization [5] | inhibition of calpain-2 activation (SBDP staining) in the retina following increased IOP ([2]; intraocular injection 40 μM, 100 μM, 200 μM, 2 h after IOP elevation, sacrificed 4 h later) | protection of retinal ganglion cells (anti-beta-III tubulin positive cells) from increased IOP-induced cell death [6] | half-life at 200 μM [7] [h]
CCC(NC(=O)[C@H](CC(C)C)NC(=O)CCc1ccccc1)C(=O)C(=O)NCc1cccc(OC)c1 (stereo partly drawn) [NA117, N-(3-methoxybenzyl)-3-((S)-4-methyl-2-(3-phenylpropanamido)pentanamido)-2-oxopentanamide] | 24.1 | also inhibits calpain activation following increased IOP |  |  |  |  |  |  |  |  |  | 
CC[C@H](NC(=O)[C@H](CC(C)C)NC(=O)CCc1ccccc1)C(=O)C(=O)NCc1cc(F)cc(OC)c1 [NA115A] |  |  | 1.5 | 196 | 124 | 331 | 189 | rapid decrease in the inhibitory effect | rapid epimerization |  |  | 
CCC(NC(=O)[C@H](CC(C)C)NC(=O)CCc1ccccc1)C(=O)C(=O)NCc1cc(F)cc(OC)c1 (stereo partly drawn) [NA115, N-(3-fluoro-5-methoxybenzyl)-3-((S)-4-methyl-2-(3-phenylpropanamido)-pentanamido)-2-oxopentanamide] | 31.7 |  | 4.5 | 170 | 103 | 750 | 470 |  |  | dose-dependently inhibiting calpain-2 activation in the retina following increased IOP | protects against retinal ganglion from increased ocular pressure-induced cell death | 9 to 15
CC[C@@H](NC(=O)[C@H](CC(C)C)NC(=O)CCc1ccccc1)C(=O)C(=O)NCc1cc(F)cc(OC)c1 [NA115B] |  |  |  | > 10000 | > 10000 | > 10000 | > 10000 | increased inhibitory effect | rapid epimerization |  |  | 

Source: patent US20210179543A1, “CALPAIN-2 SELECTIVE INHIBITOR COMPOUNDS FOR TREATMENT OF GLAUCOMA” (Western University of Health Sciences, priority 2018, published 2021)
